Source: US9738884B2, “Therapeutic agent for epithelial and endothelial injury” (NIHON UNIVERSITY, priority 2012, dated 2017)

Test system: pulmonary edema model mice
Test: LPS-induced pulmonary edema model mice, lung weight/body weight (Example 10, Experiment 1)
Format: in vivo
Details: 350 ng/body weight (g) intravenous, three hours after LPS 100 μg/body weight (g) intravenous
Description: FIG. 10 is a graph showing the results of Experiment 1 in Example 10 of the present application, namely, the results regarding therapeutic effects on pulmonary edema (the effect of reducing the amount of lung water). In the graph, “Control” indicates normal mice, “LPS” indicates an “LPS (lipopolysaccharide)+control peptide (SEQ ID NO: 26)” administration group, and “LPS/Peptide” indicates an “LPS (lipopolysaccharide)+therapeutic peptide (SEQ ID NO: 25)” administration group. In addition, the numerical value of the vertical axis in the graph indicates the ratio of the weight (g) of lung to the body weight (g) of each mouse (lung weight (g)/body weight (g)).
The therapeutic effects of the peptide of the present invention on model mice with pulmonary edema, which were caused by septicemia, disseminated intravascular coagulation syndrome (DIC) or acute respiratory distress syndrome (ARDS), were confirmed. […]
A comparison experiment was carried out on a normal mouse group (healthy mice), an “LPS (lipopolysaccharide; endotoxin)+control peptide (SEQ ID NO: 26)” administration group, and an “LPS+therapeutic peptide (SEQ ID NO: 25)” administration group (7 mice/each group). […] Thereafter, the lung was removed from the mice in each group, and the weight of each lung was measured. The ratio of the weight (g) of the lung to the body weight (g) (lung weight (g)/body weight (g)) was calculated.

AETVFSNMDYENSTEAVFIQDDITKKKKKK [SEQ ID NO: 25]
reduction of the LPS-increased amount of lung weight: 72%
